The source of these data is ChEMBL document CHEMBL3994582, “A2B adenosine receptor antagonists: Design, synthesis and biological evaluation of novel xanthine derivatives” (Eur J Med Chem, 2017).

Chain of Adenosine receptor A2a (P29274 whole entry): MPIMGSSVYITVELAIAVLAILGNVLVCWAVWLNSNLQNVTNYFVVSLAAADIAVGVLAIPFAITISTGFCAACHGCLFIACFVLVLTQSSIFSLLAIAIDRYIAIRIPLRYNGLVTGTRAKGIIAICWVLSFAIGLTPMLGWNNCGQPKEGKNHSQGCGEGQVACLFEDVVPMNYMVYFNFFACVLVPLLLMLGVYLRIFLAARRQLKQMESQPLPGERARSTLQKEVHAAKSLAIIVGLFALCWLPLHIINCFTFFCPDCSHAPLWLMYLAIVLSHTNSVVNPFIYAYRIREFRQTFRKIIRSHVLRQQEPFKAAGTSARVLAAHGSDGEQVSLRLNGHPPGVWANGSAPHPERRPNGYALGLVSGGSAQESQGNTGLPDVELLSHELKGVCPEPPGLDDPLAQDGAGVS

One data set addresses T1, Adenosine receptor A2b (Homo sapiens, UniProt P29275).
T1 sequence (P29275 whole entry): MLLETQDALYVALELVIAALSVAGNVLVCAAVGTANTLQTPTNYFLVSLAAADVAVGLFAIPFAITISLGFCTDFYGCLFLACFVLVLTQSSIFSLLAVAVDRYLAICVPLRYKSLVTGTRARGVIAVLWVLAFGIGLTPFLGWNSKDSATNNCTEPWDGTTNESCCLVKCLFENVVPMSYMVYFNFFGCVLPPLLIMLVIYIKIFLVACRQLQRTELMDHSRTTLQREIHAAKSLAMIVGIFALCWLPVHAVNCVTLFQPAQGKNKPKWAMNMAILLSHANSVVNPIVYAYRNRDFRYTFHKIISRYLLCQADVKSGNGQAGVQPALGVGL
The experiment in a line: Displacement of [3H]-MRS-1754 from human adenosine receptor A2b expressed in HEK293 cell membranes after 90 mins by liquid scintillation counting method.
Details: not given
(In general: In a radioligand displacement assay an active substance lowers the binding of a labelled ligand.)
For orientation: Ki means the dissociation constant of the complex between target and ligand, obtained from inhibition or displacement. Low values mean higher affinity, high ones lower affinity. As to `CCCn1c(=O)c2[nH]c(-c3cnn(CC(=O)N4CCN(c5ccc(F)c(Cl)c5)CC4)c3)nc2n(CCC)c1=O`, the inhibitory constant (Ki) came to 1.8 nM.
Still for that read-out and setting: to `CCCn1c(=O)c2[nH]c(-c3cc(OCC4CC(=O)N(c5cccc(F)c5)C4)no3)nc2n(CCC)c1=O` (stereo unspecified) belongs 90 nM.
The same measure, in the same setting: next, `CCCn1c(=O)c2[nH]c(-c3cnn(CC4CC(=O)N(c5ccc(C)cc5)C4)c3)nc2n(CCC)c1=O` (stereo unspecified): 8 nM; `CCCn1c(=O)c2[nH]c(-c3cc(OCC4CC(=O)N(c5ccc(F)cc5)C4)no3)nc2n(CCC)c1=O` (stereo unspecified): 210 nM; `CCCn1c(=O)c2[nH]c(-c3cnn(CC4CC(=O)N(c5cccc(C(F)(F)F)c5)C4)c3)nc2n(CCC)c1=O` (stereo unspecified): 6.5 nM.
`CCCn1c(=O)c2[nH]c(-c3cnn(CC4CC(=O)N(c5ccc(F)cc5F)C4)c3)nc2n(CCC)c1=O` (stereo unspecified) registered a Ki of 19 nM.

In the next data set the target is T2, Adenosine receptor A1 (Homo sapiens) (UniProt P30542).
T2 sequence (whole entry): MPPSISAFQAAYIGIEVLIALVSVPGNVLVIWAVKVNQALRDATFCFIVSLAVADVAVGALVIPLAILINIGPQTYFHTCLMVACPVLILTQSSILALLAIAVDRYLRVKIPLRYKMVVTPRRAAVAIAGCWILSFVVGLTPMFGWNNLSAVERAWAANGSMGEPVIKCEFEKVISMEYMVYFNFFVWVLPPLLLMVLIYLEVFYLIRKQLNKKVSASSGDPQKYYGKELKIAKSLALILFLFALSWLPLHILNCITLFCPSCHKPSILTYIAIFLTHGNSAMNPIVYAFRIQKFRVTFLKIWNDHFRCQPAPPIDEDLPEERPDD
The experiment in a line: Displacement of [3H]DPCPX from human adenosine receptor A1 expressed in HEK293 cell membranes at 0.1 uM after 90 mins by liquid scintillation counting method relative to control.
Details: not given
As a reminder, the inhibition is the percentage by which the read-out fell short of the control. `CCCn1c(=O)c2[nH]c(-c3cnn(CC(=O)N4CCN(c5ccc(F)c(Cl)c5)CC4)c3)nc2n(CCC)c1=O` came in with an inhibition of 56%.
`CCCn1c(=O)c2[nH]c(-c3cnn(CC4CC(=O)N(c5ccc(C)cc5)C4)c3)nc2n(CCC)c1=O` (stereo unspecified): the inhibition turned out to be 33%.
On the same count and under the same terms, to `CCCn1c(=O)c2[nH]c(-c3cc(OCC4CC(=O)N(c5ccc(F)cc5)C4)no3)nc2n(CCC)c1=O` (stereo unspecified) belongs 0%; to `CCCn1c(=O)c2[nH]c(-c3cnn(CC4CC(=O)N(c5cccc(C(F)(F)F)c5)C4)c3)nc2n(CCC)c1=O` (stereo unspecified), 25%.
Molecule `CCCn1c(=O)c2[nH]c(-c3cnn(CC4CC(=O)N(c5ccc(F)cc5F)C4)c3)nc2n(CCC)c1=O` (stereo unspecified) showed an inhibition of 13%.

A further data set concerns the target Adenosine receptor A2a (Homo sapiens, UniProt P29274). As to the kind of experiment: Displacement of [3H]-ZM-241385 from human adenosine receptor A2a expressed in HEK293 cell membranes at 0.1 uM after 90 mins by liquid scintillation counting method relative to control.
Details: not given
With `CCCn1c(=O)c2[nH]c(-c3cnn(CC(=O)N4CCN(c5ccc(F)c(Cl)c5)CC4)c3)nc2n(CCC)c1=O`, the inhibition turned out to be 72%.
`CCCn1c(=O)c2[nH]c(-c3cnn(CC4CC(=O)N(c5ccc(C)cc5)C4)c3)nc2n(CCC)c1=O` (stereo unspecified): the inhibition is 37%.
The same measure, in the same setting: next, `CCCn1c(=O)c2[nH]c(-c3cc(OCC4CC(=O)N(c5ccc(F)cc5)C4)no3)nc2n(CCC)c1=O` (stereo unspecified): 0%; `CCCn1c(=O)c2[nH]c(-c3cnn(CC4CC(=O)N(c5cccc(C(F)(F)F)c5)C4)c3)nc2n(CCC)c1=O` (stereo unspecified): 48%.
Same read-out and setting: to `CCCn1c(=O)c2[nH]c(-c3cnn(CC4CC(=O)N(c5ccc(F)cc5F)C4)c3)nc2n(CCC)c1=O` (stereo unspecified) belongs 45%.

For the next data set, the target named is T3, Adenosine receptor A3 (Homo sapiens) (UniProt P0DMS8).
T3 sequence (whole entry): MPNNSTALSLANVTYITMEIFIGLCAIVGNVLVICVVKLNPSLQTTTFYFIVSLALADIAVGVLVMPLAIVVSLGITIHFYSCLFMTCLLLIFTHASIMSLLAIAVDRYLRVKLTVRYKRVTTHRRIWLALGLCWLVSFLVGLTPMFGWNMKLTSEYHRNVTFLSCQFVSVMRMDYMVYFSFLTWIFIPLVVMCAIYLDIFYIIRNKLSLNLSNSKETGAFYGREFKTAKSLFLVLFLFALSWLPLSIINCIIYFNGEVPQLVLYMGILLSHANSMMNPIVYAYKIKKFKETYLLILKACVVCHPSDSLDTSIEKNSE
As to the kind of experiment: Displacement of [3H]-HEM-ADO from human adenosine receptor A3 expressed in HEK293 cell membranes at 1 uM after 90 mins by liquid scintillation counting method relative to control.
Details: not given
Regarding `CCCn1c(=O)c2[nH]c(-c3cnn(CC(=O)N4CCN(c5ccc(F)c(Cl)c5)CC4)c3)nc2n(CCC)c1=O`, the inhibition stood at 17%.
Molecule `CCCn1c(=O)c2[nH]c(-c3cnn(CC4CC(=O)N(c5ccc(C)cc5)C4)c3)nc2n(CCC)c1=O` (stereo unspecified) showed an inhibition of 0%.
In the case of `CCCn1c(=O)c2[nH]c(-c3cc(OCC4CC(=O)N(c5ccc(F)cc5)C4)no3)nc2n(CCC)c1=O` (stereo unspecified), the inhibition was 7%.
The same measure, in the same setting: next, `CCCn1c(=O)c2[nH]c(-c3cnn(CC4CC(=O)N(c5cccc(C(F)(F)F)c5)C4)c3)nc2n(CCC)c1=O` (stereo unspecified): 31%.
The same measure, in the same setting: to `CCCn1c(=O)c2[nH]c(-c3cnn(CC4CC(=O)N(c5ccc(F)cc5F)C4)c3)nc2n(CCC)c1=O` (stereo unspecified) belongs 0%.

Another data set deals with Liver. As to the kind of experiment: Metabolic stability in mouse liver microsomes assessed as metabolic rate per mg protein preincubated for 5 mins followed by NADPH addition measured up to 30 mins by LC-MS/MS analysis. The format is ADME, microsome. Conditions: 0.5 h. For orientation: Liver microsomes are vesicles of endoplasmic reticulum, rich in cytochrome P450 enzymes.
On to `CCCn1c(=O)c2[nH]c(-c3cnn(CC4CC(=O)N(c5ccc(C)cc5)C4)c3)nc2n(CCC)c1=O` (stereo unspecified), for which the Drug metabolism was determined as 0.25 nmol/min/mg.
Regarding `CCCn1c(=O)c2[nH]c(-c3cnn(CC4CC(=O)N(c5cccc(C(F)(F)F)c5)C4)c3)nc2n(CCC)c1=O` (stereo unspecified), the Drug metabolism was 0.61 nmol/min/mg.
As to `CCCn1c(=O)c2[nH]c(-c3cnn(CC4CC(=O)N(c5ccc(F)cc5F)C4)c3)nc2n(CCC)c1=O` (stereo unspecified), the Drug metabolism is 0.48 nmol/min/mg.

Another data set has as its system Liver. The experiment in a line: Metabolic stability in human liver microsomes assessed as metabolic rate per mg protein preincubated for 5 mins followed by NADPH addition measured up to 30 mins by LC-MS/MS analysis. The format is ADME, microsome. As to conditions: 0.5 h.
For the molecule `CCCn1c(=O)c2[nH]c(-c3cnn(CC4CC(=O)N(c5cccc(C(F)(F)F)c5)C4)c3)nc2n(CCC)c1=O` (stereo unspecified), the Drug metabolism worked out at 0.18 nmol/min/mg.
With `CCCn1c(=O)c2[nH]c(-c3cnn(CC4CC(=O)N(c5ccc(F)cc5F)C4)c3)nc2n(CCC)c1=O` (stereo unspecified), the Drug metabolism was found to be 0.03 nmol/min/mg.
